Activity calls are given as the source filed them. How the calls were made is not given here.
biological target: Caspase-6 (Homo sapiens) (UniProt P55212); experiment: inhibition of CASP6 peptide cleavage – biochemical, VEID-R110 fluorescence, cherry-pick, dose response (AID 720632); settings: caspase-6, VEID-R110 fluorogenic substrate; at 23.5 µM (top of the series)
Sequence (P55212 24-179 limits assumed): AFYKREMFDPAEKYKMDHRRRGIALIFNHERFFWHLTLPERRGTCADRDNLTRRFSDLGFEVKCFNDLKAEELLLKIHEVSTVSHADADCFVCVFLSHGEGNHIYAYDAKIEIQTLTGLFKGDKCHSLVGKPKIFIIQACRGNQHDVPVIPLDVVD
Sequence (P55212 194-293 limits assumed): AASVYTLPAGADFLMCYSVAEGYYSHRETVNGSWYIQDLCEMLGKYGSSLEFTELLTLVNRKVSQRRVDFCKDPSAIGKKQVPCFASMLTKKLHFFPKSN

| SMILES | activity change, negative = inhibition |
| --- | --- |
| CCC(=O)Nc1ccc2c(c1)OC[C@@H](C)N(C(=O)CC)C[C@@H](C)[C@H](OC)CN(C)C2=O | inactive |

same assay, conditions: caspase-6, VEID-R110 fluorogenic substrate; at 26 µM (top of the series)

| SMILES | activity change, negative = inhibition |
| --- | --- |
| COc1ccc(N2CCN(C(=O)CCNS(=O)(=O)c3ccc(C)cc3)CC2)cc1 | inactive |
| CCN(CC)c1nc(N)c2c(N)nc(OC)cc2c1C#N | inactive |
| O=C(O)c1ccc2nnn(O)c2c1 | inactive |
| OC(CNC1CCCCC1)COCCOc1ccc(Br)cc1 (stereo not given) | inactive |
| CCCC(=O)Nc1ccc2c(c1)OC[C@@H](C)N(Cc1ccc(F)cc1)C[C@H](C)[C@@H](OC)CN(C)C2=O | inactive |
| Cc1ccc(-c2nc3ccc(Cl)cn3c2Cc2ccsc2)cc1 | inactive |
| CCCC(=O)Nc1ccc2c(c1)OC[C@@H](C)N(C(=O)CC)C[C@@H](C)[C@@H](OC)CN(C)C2=O | inactive |
| COc1ccccc1C#Cc1ccc2c(c1)O[C@@H](CN(C)C)[C@@H](C)CN([C@@H](C)CO)S2(=O)=O | inactive |
| CCNC(=S)N1CCCCC1CO (stereo not given) | inactive |
| O=C(O)C1Sc2[nH]c(=O)sc2C2c3ccc(O)cc3OC(=O)C12 (stereo not given) | inactive |
| O=C1C2C3C=CC(CC3)C2C(=O)N1c1nccs1 (stereo not given) | inactive |
| COc1cc(OC)cc(C(=O)NNC(=O)CNC(=O)c2cccs2)c1 | inactive |
| O=C(Nc1ccc(F)cc1)c1ccccc1NC(=O)C1CC=CCC1C(=O)O (stereo not given) | inactive |
| Nc1cccnc1Oc1ccc(F)cc1F | inactive |
| CO[C@H]1CN(C)C(=O)c2ccc(NC(=O)C3CC3)cc2OC[C@@H](C)N(Cc2ccccc2)C[C@@H]1C | inactive |
| O=C(O)c1ccc(NS(=O)(=O)/C=C/c2ccccc2)cc1O | inactive |
| COc1nc(C)c2cc(C)oc2n1 | inactive |

| SMILES | activity change, negative = inhibition |
| --- | --- |
| O=C(Nc1ccc(C(=O)N2CCCC2)cc1)c1ccc2c(c1)OCO2 | inactive |
| CCCC(=O)Nc1ccc2c(c1)OC[C@@H](C)N(Cc1ccc(F)cc1)C[C@@H](C)[C@@H](OC)CN(C)C2=O | inactive |
| O=C(Cn1cncn1)NCCCc1ccccc1 | inactive |
| Cc1ccc(C(=O)O)cc1NC(=O)c1ccc2c(c1)C(=O)N(c1ccc([N+](=O)[O-])cc1)C2=O | inactive |
| CCCN1C[C@@H](C)[C@@H](OC)CN(C)C(=O)c2ccc(NC(=O)c3ccccc3)cc2OC[C@H]1C | inactive |
| CC(C)(C)N(Cc1ccccc1)C(=O)COC(=O)c1ccc([N+](=O)[O-])o1 | inactive |
| C=CCOc1cccn2c(N(C=O)Cc3ccccc3)c(CC)nc12 | inactive |
| CC(C)NC(=O)C1(C)CCN1C(=O)c1ccc2c(c1)OCO2 (stereo not given) | inactive |
| O=C(NC(=S)NNS(=O)(=O)c1ccccc1)c1ccccc1[N+](=O)[O-] | inactive |
| O=C(COC(=O)c1ccc([N+](=O)[O-])o1)Nc1ccc(F)cc1 | inactive |
| O=C(CCCn1c(=S)[nH]c2cc3c(cc2c1=O)OCO3)N1CCN(c2ccc(F)cc2)CC1 | inactive |
| Cc1noc(C)c1COc1ccccc1C(=O)N(C)CC(=O)Nc1ccc(F)c(F)c1F | inactive |
| CO[C@H]1CN(C)C(=O)c2ccc(NC(=O)c3ccccc3)cc2OC[C@@H](C)N(C(=O)C2CC2)C[C@@H]1C | inactive |
| O=C1NC(=O)C(Sc2ccccc2[N+](=O)[O-])C(=O)N1 | inactive |
| COc1cccc(/C=N/Nc2nc(C)cc(=O)[nH]2)c1OC | inactive |
| CC1(Oc2cnc(Cl)c3ccccc23)CCN(Cc2ccc(OC(F)(F)F)cc2)C1 (stereo not given) | inactive |
| COc1ccccc1N(Cc1ccccc1)S(=O)(=O)c1cccc(C(=O)Nc2ccccn2)c1 | inactive |

Source: PubChem BioAssay AID720632 (Broad Institute, 2013)
